Measurements as given in ChEMBL document CHEMBL4385641 (Bioorg Med Chem, 2019).

Legend:
[1] = molecular target: T1, Cannabinoid receptor 1 (Homo sapiens, UniProt P21554); test: Inverse agonist activity at human CB1 receptor expressed in CHOK1 cells co-expressing Galphaq16 assessed as apparent equilibrium constant after 90 secs by […]-4 AM dye-based FLIPR assay; assay type: cell-based
[2] = molecular target: T1, Cannabinoid receptor 1; test: Displacement of [3H]-CP55940 from human CB1 receptor expressed in CHO cell membranes
[3] = molecular target: Cannabinoid receptor 2 (Homo sapiens, UniProt P34972); test: Displacement of [3H]-CP55940 from human CB2 receptor expressed in CHO cell membranes
Cannabinoid receptor 2, sequence (P34972 whole entry): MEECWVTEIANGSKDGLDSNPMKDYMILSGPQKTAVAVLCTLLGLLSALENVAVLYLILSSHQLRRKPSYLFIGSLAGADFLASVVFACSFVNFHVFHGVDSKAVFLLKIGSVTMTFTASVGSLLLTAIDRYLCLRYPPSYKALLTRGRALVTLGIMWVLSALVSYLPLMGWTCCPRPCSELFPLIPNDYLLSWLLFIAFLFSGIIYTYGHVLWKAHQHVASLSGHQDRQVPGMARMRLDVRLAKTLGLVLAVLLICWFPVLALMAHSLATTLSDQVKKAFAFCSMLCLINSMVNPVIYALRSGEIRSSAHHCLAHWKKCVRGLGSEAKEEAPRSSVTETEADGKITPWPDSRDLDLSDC

[4] = organism: Homo sapiens; test: Selectivity ratio of Ki for displacement of [3H]-CP55940 from human CB2 receptor expressed in CHO cell membranes to Ki for displacement of [3H]-CP55940 from human CB1 receptor expressed in CHO cell membranes
[5] = Permeability across apical to basolateral side in MDCK-MDR1 cells at 10 uM incubated for 1 hr by mass spectrometric method; assay type: ADME, cell-based, Canis lupus familiaris; conditions: dog, mdck-mdr1, 1 h
[6] = Half life in human liver microsomes at 1 uM by mass mass spectrometric method; assay type: ADME, Microsome; conditions: liver microsomes
[7] = Intrinsic clearance in human liver microsomes at 1 uM incubated for up to 120 mins by mass mass spectrometric method; assay type: ADME, Microsome; conditions: liver microsomes, read-out: CLH

T1 sequence (P21554 whole entry): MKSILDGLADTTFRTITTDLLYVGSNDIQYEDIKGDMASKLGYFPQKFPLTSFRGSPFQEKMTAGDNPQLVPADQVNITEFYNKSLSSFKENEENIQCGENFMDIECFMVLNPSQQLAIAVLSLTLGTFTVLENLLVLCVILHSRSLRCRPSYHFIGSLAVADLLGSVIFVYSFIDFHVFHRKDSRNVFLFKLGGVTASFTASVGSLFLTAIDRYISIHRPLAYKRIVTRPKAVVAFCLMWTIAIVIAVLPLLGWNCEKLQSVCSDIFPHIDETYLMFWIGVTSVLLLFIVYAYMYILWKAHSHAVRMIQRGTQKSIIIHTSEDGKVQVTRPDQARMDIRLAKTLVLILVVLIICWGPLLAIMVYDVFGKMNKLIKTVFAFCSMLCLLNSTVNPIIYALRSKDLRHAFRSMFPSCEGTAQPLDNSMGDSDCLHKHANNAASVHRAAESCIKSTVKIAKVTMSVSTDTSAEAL

Row | SMILES | Ke(app) [1] [nM] | Ki [2] [µM] | Ki [3] [µM] | permeability [5] [%] | half-life at 1 µM [6] [h] | microsomal CLint at 1 µM [7] [µL/min/mg] | Ratio Ki [4]
1 | CCCCC(=O)NC1CCN(c2ncnc3c2nc(-c2ccccc2Cl)n3-c2ccc(C(F)(F)F)nc2)CC1 | 4 | 0.003 | 0.42 | 28 |  |  | 140
2 | Nc1ccc(-n2c(-c3ccccc3Cl)nc3c(N4CCC(NS(=O)(=O)c5ccc(F)c(F)c5)CC4)ncnc32)cn1 | > 10000 |  |  |  |  |  | 
3 | O=S(=O)(NC1CCN(c2ncnc3c2nc(-c2ccccc2Cl)n3-c2ccc(OC(F)F)nc2)CC1)c1ccccc1F | 0.7 | 0.0016 | 0.19 |  |  |  | 120
4 | O=S(=O)(NC1CCN(c2ncnc3c2nc(-c2ccccc2Cl)n3-c2ccc(C(F)(F)F)nc2)CC1)c1ccc(F)c(F)c1 | 1 | 0.01 | > 6 |  |  |  | > 600
5 | O=S(=O)(NC1CCN(c2ncnc3c2nc(-c2ccccc2Cl)n3-c2ccc(C(F)(F)F)nc2)CC1)c1ccccc1F | 0.5 | 0.004 | 0.4 |  |  |  | 100
6 | O=S(=O)(NC1CCN(c2ncnc3c2nc(-c2ccccc2Cl)n3-c2cc(C(F)(F)F)[nH]n2)CC1)c1ccc(F)c(F)c1 | 5000 |  |  |  |  |  | 
7 | Cn1ccc(-n2c(-c3ccccc3Cl)nc3c(N4CCC(NS(=O)(=O)c5ccc(F)c(F)c5)CC4)ncnc32)n1 | 120 |  |  |  |  |  | 
8 | O=C(CN1CCOCC1)NC1CCN(c2ncnc3c2nc(-c2ccccc2Cl)n3-c2ccc(Cl)cc2)CC1 | 1100 |  |  |  |  |  | 
9 | O=C(NC1CCN(c2ncnc3c2nc(-c2ccccc2Cl)n3-c2ccc(Cl)cc2)CC1)C1CCS(=O)(=O)CC1 | > 10000 |  |  |  |  |  | 
10 | O=C(CN1CCCCC1)NC1CCN(c2ncnc3c2nc(-c2ccccc2Cl)n3-c2ccc(Cl)cc2)CC1 | 220 |  |  |  |  |  | 
11 | O=C(NC1CCN(c2ncnc3c2nc(-c2ccccc2Cl)n3-c2ccc(Cl)cc2)CC1)OCC1COC1 | 77 |  |  |  |  |  | 
12 | O=C(CC1CCOC1)NC1CCN(c2ncnc3c2nc(-c2ccccc2Cl)n3-c2ccc(Cl)cc2)CC1 (stereo not drawn) | 1000 |  |  |  |  |  | 
13 | O=S(=O)(CCC(F)(F)F)NC1CCN(c2ncnc3c2nc(-c2ccccc2Cl)n3-c2ccc(Cl)cc2)CC1 | 12 | 0.004 | 0.42 | 1 |  |  | 105
14 | O=C(CC1CCOCC1)NC1CCN(c2ncnc3c2nc(-c2ccccc2Cl)n3-c2ccc(Cl)cc2)CC1 | 510 |  |  |  |  |  | 
15 | O=S(=O)(CC1CCCCC1)NC1CCN(c2ncnc3c2nc(-c2ccccc2Cl)n3-c2ccc(Cl)cc2)CC1 | 31 | 0.009 | > 10 | < 0.1 |  |  | > 1100
16 | O=C(NC1CCN(c2ncnc3c2nc(-c2ccccc2Cl)n3-c2ccc(C(F)(F)F)nc2)CC1)c1ccccc1 | 19 | 0.008 | 0.74 | 3 |  |  | 92
17 | O=C(NC1CCN(c2ncnc3c2nc(-c2ccccc2Cl)n3-c2ccc(Cl)cc2)CC1)OC1CCOCC1 | 320 |  |  |  |  |  | 
18 | CC(=O)Nc1ccc(-n2c(-c3ccccc3Cl)nc3c(N4CCC(NS(=O)(=O)c5ccc(F)c(F)c5)CC4)ncnc32)cn1 | 2700 |  |  |  |  |  | 
19 | CC(C)(C)OCCC(=O)NC1CCN(c2ncnc3c2nc(-c2ccccc2Cl)n3-c2ccc(Cl)cc2)CC1 | 1.7 | 0.006 | 4.9 | 20 |  |  | 820
20 | Cc1cc(-n2c(-c3ccccc3Cl)nc3c(N4CCC(NS(=O)(=O)c5ccc(F)c(F)c5)CC4)ncnc32)no1 | 56 | 0.42 | > 10 |  |  |  | > 20
21 | Cn1nnnc1CCC(=O)NC1CCN(c2ncnc3c2nc(-c2ccccc2Cl)n3-c2ccc(Cl)cc2)CC1 | > 10000 |  |  |  |  |  | 
22 | O=C(NC1CCN(c2ncnc3c2nc(-c2ccccc2Cl)n3-c2ccc(Cl)cc2)CC1)C1CCSCC1 | 26 | 0.003 | 1.9 |  |  |  | 630
23 | Cn1cc(-n2c(-c3ccccc3Cl)nc3c(N4CCC(NS(=O)(=O)c5ccc(F)c(F)c5)CC4)ncnc32)cn1 | 140 |  |  |  |  |  | 
24 | O=C(NC1CCN(c2ncnc3c2nc(-c2ccccc2Cl)n3-c2ccc(Cl)cc2)CC1)C1CCOCC1 | 440 |  |  |  |  |  | 
25 | CN1CCC(COC(=O)NC2CCN(c3ncnc4c3nc(-c3ccccc3Cl)n4-c3ccc(Cl)cc3)CC2)CC1 | 1500 |  |  |  |  |  | 

More lines, main results first:

Row | Ke(app) [1] [nM] | Ki [2] [µM] | Ki [3] [µM] | permeability [5] [%] | half-life at 1 µM [6] [h] | microsomal CLint at 1 µM [7] [µL/min/mg] | SMILES | Ratio Ki [4]
26 | 580 |  |  |  |  |  | Clc1ccc(-n2c(-c3ccccc3Cl)nc3c(N4CCC(NCc5ccncc5)CC4)ncnc32)cc1 | 
27 | 460 |  |  |  |  |  | CN(Cc1ccc(F)cc1)C1CCN(c2ncnc3c2nc(-c2ccccc2Cl)n3-c2ccc(Cl)cc2)CC1 | 
28 | 140 |  |  |  |  |  | O=C(NC1CCN(c2ncnc3c2nc(-c2ccccc2Cl)n3-c2ccc(Cl)cc2)CC1)c1ccccn1 | 
29 | 29 | 0.009 | 0.57 | < 0.1 |  |  | CCCCCS(=O)(=O)NC1CCN(c2ncnc3c2nc(-c2ccccc2Cl)n3-c2ccc(Cl)cc2)CC1 | 63
30 | 0.7 | 0.003 | 5.9 | 0.2 |  |  | O=C(NC1CCN(c2ncnc3c2nc(-c2ccccc2Cl)n3-c2ccc(Cl)cc2)CC1)c1ccc(F)c(F)c1 | 2000
31 | 100 |  |  |  |  |  | Clc1ccc(-n2c(-c3ccccc3Cl)nc3c(N4CCC(Nc5ccncc5)CC4)ncnc32)cc1 | 
32 | 0.3 | 0.0002 | 0.015 |  |  |  | CC(C)(C)CC(=O)NC1CCN(c2ncnc3c2nc(-c2ccccc2Cl)n3-c2ccc(Cl)cc2)CC1 | 75
33 | 1.2 | 0.002 | > 7 | < 0.1 |  |  | O=C(NC1CCN(c2ncnc3c2nc(-c2ccccc2Cl)n3-c2ccc(Cl)cc2)CC1)c1ccc(F)cc1F | > 3500
34 | 43 |  |  |  |  |  | Clc1ccc(-n2c(-c3ccccc3Cl)nc3c(N4CCC(Nc5ncccn5)CC4)ncnc32)cc1 | 
35 | 370 |  |  |  |  |  | COCCC(=O)NC1CCN(c2ncnc3c2nc(-c2ccccc2Cl)n3-c2ccc(Cl)cc2)CC1 | 
36 | 150 |  |  |  |  |  | Clc1ccc(-n2c(-c3ccccc3Cl)nc3c(N4CCC(NCc5ccccc5)CC4)ncnc32)cc1 | 
37 | 6 | 0.017 | > 5 | 13 |  |  | COCCOC(=O)NC1CCN(c2ncnc3c2nc(-c2ccccc2Cl)n3-c2ccc(Cl)cc2)CC1 | > 200
38 |  | 0.005 | > 10 |  | 1.1 | 19 | O/N=C(\c1ccc(F)cc1)C1CCN(c2ncnc3c2nc(-c2ccccc2Cl)n3-c2ccc(Cl)cc2)CC1 (stereo in doubt; 20) [listing 1 of 2 here] | 
39 | 21 | 0.0026 | > 10 |  |  |  | O=S(=O)(NC1CCN(c2ncnc3c2nc(-c2ccccc2Cl)n3-c2ccc(F)cc2)CC1)c1ccccc1F | > 3000
40 | 3 | 0.004 | 0.71 |  |  |  | O=C(NC1CCN(c2ncnc3c2nc(-c2ccccc2Cl)n3-c2ccc(Cl)cc2)CC1)OCc1ccccc1 | 180
41 | 330 |  |  |  |  |  | NC(=O)c1ccc(-n2c(-c3ccccc3Cl)nc3c(N4CCC(NS(=O)(=O)c5ccc(F)c(F)c5)CC4)ncnc32)cc1 | 

Row | Ke(app) [1] [nM] | Ki [2] [µM] | Ki [3] [µM] | permeability [5] [%] | half-life at 1 µM [6] [h] | microsomal CLint at 1 µM [7] [µL/min/mg] | SMILES | Ratio Ki [4]
42 | 240 |  |  |  |  |  | CCOCC(=O)NC1CCN(c2ncnc3c2nc(-c2ccccc2Cl)n3-c2ccc(Cl)cc2)CC1 | 
43 | 6000 |  |  |  |  |  | CS(=O)(=O)CCC(=O)NC1CCN(c2ncnc3c2nc(-c2ccccc2Cl)n3-c2ccc(Cl)cc2)CC1 | 
44 | 21 |  |  |  |  |  | O/N=C(\c1ccc(F)cc1)C1CCN(c2ncnc3c2nc(-c2ccccc2Cl)n3-c2ccc(Cl)cc2)CC1 (stereo in doubt; 21) | > 1400
45 | 1.4 | 0.006 | > 10 | 0 |  |  | Clc1ccc(-n2c(-c3ccccc3Cl)nc3c(N4CCC(Nc5ccccc5)CC4)ncnc32)cc1 | > 1600
46 | 150 |  |  |  |  |  | O=C(NC1CCN(c2ncnc3c2nc(-c2ccccc2Cl)n3-c2ccc(Cl)cc2)CC1)C1CCOC1 (stereo not drawn) | 
47 | 2 |  | > 10 | 0.1 |  |  | O=S(=O)(NC1CCN(c2ncnc3c2nc(-c2ccccc2Cl)n3-c2ccc(Cl)cc2)CC1)c1ccc(F)cc1F | > 5000
48 | 210 |  |  |  |  |  | Fc1ccc(CNC2CCN(c3ncnc4c3nc(-c3ccccc3Cl)n4-c3ccc(Cl)cc3)CC2)cc1 | 
49 | 1.1 | 0.002 | 10 | 0.2 |  |  | O=C(NC1CCN(c2ncnc3c2nc(-c2ccccc2Cl)n3-c2ccc(Cl)cc2)CC1)c1ccc(F)cc1 | 5000
50 | 34 |  | 2.7 |  |  |  | CN(Cc1ccccc1)C1CCN(c2ncnc3c2nc(-c2ccccc2Cl)n3-c2ccc(Cl)cc2)CC1 | 64
51 | 2 | 0.003 | 0.15 | < 0.1 |  |  | CC(C(=O)NC1CCN(c2ncnc3c2nc(-c2ccccc2Cl)n3-c2ccc(Cl)cc2)CC1)c1ccccc1 (stereo not drawn) | 50
52 | 12 |  | 0.83 |  |  |  | Clc1ccc(-n2c(-c3ccccc3Cl)nc3c(N4CCC(c5nc6ccccc6[nH]5)CC4)ncnc32)cc1 | 18
53 | 1.1 | 0.0033 | 9 | 0.1 |  |  | O=S(=O)(NC1CCN(c2ncnc3c2nc(-c2ccccc2Cl)n3-c2ccc(Cl)cc2)CC1)c1ccc(F)cc1 | > 2000
54 | 20 |  |  |  |  |  | O/N=C(\c1ccc(F)cc1)C1CCN(c2ncnc3c2nc(-c2ccccc2Cl)n3-c2ccc(Cl)cc2)CC1 (stereo in doubt; 20) [listing 2 of 2 here] | > 2000
55 | 92 |  |  |  |  |  | O=C(NC1CCN(c2ncnc3c2nc(-c2ccccc2Cl)n3-c2ccc(Cl)cc2)CC1)OC1COC1 | 
56 | 1700 |  |  |  |  |  | CC(C)(O)CC(=O)NC1CCN(c2ncnc3c2nc(-c2ccccc2Cl)n3-c2ccc(Cl)cc2)CC1 | 
57 | 1 | 0.0006 | 1.05 |  |  |  | O=C(NC1CCN(c2ncnc3c2nc(-c2ccccc2Cl)n3-c2ccc(Cl)cc2)CC1)OC1CCC1 | 1800
